Where two headings read alike, the source gives them in different places.

The target in test [1] is HiBit-WIZ fusion protein (Homo sapiens, UniProt O95785+Q96SW2). In words: Quantification of WIZ protein levels in HiBit tag fusion protein assay (WIZ HiBit assay in 293T cells). The test is classed as cell-based. Further details: Dmax: dose or concentration left out as unconfirmed. Particulars: for remaining activity at up to 25 µM: read-out: WIZ Amax; for DC50: read-out: WIZ AC50. In general terms: HiBiT is a short tag that completes a luciferase, so light tracks the accessible tagged protein.
HiBit-WIZ fusion protein, sequence (O95785 whole entry, the tested form may be a part): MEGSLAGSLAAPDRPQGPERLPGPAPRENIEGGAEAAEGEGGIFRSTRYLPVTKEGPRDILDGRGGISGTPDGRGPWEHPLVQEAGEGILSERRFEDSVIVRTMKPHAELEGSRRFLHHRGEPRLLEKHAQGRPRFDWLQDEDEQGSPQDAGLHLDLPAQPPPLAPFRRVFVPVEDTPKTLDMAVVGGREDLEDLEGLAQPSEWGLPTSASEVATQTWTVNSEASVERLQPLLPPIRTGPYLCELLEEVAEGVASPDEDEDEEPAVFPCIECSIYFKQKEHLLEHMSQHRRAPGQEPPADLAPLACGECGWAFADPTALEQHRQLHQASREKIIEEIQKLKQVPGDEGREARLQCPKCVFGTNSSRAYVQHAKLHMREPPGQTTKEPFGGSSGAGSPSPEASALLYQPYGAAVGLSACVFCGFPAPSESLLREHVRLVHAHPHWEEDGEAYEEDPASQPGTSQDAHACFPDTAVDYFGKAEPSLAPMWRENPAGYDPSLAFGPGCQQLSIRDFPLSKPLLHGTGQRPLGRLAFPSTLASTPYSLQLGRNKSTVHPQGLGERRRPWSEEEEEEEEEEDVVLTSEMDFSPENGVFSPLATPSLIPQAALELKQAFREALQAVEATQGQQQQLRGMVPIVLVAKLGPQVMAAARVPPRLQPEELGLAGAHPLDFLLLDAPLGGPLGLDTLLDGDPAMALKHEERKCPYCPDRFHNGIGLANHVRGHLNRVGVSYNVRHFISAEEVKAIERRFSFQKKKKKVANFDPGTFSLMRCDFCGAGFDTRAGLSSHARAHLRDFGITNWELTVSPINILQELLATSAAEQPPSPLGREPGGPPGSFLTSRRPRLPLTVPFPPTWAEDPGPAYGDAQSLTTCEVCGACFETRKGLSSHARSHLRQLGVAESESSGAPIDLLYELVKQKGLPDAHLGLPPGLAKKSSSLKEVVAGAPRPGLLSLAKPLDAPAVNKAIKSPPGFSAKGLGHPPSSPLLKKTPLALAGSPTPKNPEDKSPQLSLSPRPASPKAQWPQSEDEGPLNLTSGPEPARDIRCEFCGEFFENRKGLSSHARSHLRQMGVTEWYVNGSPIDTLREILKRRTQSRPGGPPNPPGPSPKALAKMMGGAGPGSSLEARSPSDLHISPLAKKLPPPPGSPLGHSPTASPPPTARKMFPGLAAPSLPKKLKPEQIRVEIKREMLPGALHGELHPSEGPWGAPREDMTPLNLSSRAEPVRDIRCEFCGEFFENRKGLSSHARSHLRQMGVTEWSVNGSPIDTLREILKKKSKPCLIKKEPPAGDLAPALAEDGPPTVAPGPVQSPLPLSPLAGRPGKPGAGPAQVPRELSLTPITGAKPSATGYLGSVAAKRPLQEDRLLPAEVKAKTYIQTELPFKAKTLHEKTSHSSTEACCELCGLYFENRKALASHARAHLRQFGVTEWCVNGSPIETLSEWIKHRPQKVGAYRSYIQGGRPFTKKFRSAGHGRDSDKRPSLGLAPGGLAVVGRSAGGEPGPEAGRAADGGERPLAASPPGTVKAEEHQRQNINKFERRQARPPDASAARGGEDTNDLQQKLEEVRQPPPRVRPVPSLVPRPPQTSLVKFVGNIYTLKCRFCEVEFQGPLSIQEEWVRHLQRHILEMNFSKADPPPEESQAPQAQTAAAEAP
HiBit-WIZ fusion protein, sequence (Q96SW2 whole entry, the tested form may be a part): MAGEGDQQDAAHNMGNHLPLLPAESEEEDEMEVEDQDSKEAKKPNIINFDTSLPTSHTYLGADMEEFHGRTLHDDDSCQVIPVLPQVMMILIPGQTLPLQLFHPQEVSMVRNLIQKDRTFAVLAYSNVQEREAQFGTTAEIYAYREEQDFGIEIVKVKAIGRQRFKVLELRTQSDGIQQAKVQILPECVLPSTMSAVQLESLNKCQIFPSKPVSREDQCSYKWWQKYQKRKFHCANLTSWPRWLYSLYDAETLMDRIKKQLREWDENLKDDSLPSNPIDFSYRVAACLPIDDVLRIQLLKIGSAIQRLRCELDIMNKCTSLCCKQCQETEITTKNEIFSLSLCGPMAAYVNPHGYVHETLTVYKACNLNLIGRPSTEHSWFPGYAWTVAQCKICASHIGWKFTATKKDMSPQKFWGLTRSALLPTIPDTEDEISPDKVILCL
HiBit-WIZ fusion protein, sequence (Q16531 whole entry partner, the tested form may be a part): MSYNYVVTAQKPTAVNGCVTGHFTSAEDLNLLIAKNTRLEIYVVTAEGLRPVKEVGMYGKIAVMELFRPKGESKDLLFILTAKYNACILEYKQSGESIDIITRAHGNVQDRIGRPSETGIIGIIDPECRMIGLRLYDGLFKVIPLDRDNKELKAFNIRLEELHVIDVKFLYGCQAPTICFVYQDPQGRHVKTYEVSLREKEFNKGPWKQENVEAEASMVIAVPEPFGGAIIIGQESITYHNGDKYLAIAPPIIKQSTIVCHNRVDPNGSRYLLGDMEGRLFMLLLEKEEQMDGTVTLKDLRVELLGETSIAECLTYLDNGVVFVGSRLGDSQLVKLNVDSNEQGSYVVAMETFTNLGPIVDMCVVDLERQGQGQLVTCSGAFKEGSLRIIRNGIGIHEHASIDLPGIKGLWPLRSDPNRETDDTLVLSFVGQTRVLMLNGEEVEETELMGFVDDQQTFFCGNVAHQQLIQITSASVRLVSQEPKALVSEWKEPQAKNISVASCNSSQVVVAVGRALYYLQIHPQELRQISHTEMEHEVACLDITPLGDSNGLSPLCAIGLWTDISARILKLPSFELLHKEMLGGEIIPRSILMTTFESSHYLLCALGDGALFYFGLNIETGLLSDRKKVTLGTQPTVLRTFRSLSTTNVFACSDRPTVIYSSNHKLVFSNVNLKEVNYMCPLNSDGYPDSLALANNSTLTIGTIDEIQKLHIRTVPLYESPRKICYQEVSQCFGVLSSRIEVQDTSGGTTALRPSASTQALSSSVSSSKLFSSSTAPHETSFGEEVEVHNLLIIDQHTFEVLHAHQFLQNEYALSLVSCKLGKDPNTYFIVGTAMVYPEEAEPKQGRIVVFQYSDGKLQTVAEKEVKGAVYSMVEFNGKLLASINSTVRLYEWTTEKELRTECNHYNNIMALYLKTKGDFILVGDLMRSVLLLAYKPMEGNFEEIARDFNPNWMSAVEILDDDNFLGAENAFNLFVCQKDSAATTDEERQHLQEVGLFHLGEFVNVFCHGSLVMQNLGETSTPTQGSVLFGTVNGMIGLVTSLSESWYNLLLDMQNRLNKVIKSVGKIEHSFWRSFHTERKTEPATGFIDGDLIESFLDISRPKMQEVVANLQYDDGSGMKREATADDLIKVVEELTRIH

The conditions of test [2]: SCD, current standard of care; cited from earlier work.
The mark [3] stands for this setting: HEK-293T, 100 minus Amax, 293T cells, read-out: % degradation of WIZ (100-Amax).
[4] abbreviates: HEK-293T, DMSO-normalized, curve-fitted percentage of WIZ-HiBit remaining at 25 uM, 293T cells.
Setting [5] is: WIZ HiBit assay in 293T cells, 10-point, 5-fold dose response, highest concentration 25 μM, about 18 hours.

As for `O=C1CCC(N2Cc3cc(OC[C@H]4CCCCN4Cc4ccc5[nH]cnc5c4)ccc3C2=O)C(=O)N1` (stereo partly drawn) [Compound I-193], the Dmax in test [1] (setting [3]) stood at 55.7%. The remaining activity at up to 25 µM in test [1] (setting [4]) was 44.3%. In addition, in test [1] (setting [5]), the DC50 was found to be 490 nM.
The like results for `COc1ccc(CN2CCCC[C@@H]2COc2ccc3c(c2)CN(C2CCC(=O)NC2=O)C3=O)cc1C#N` (stereo partly drawn) [Compound I-196, 5-(((2R)-2-(((2-(2,6-dioxopiperidin-3-yl)-1-oxoisoindolin-5-yl)oxy)methyl)piperidin-1-yl)methyl)-2-methoxybenzonitrile] were, in that order, 78.8%, 21.2% and 4.2 nM.
The corresponding values for `O=C1CCC(N2Cc3cc(OC[C@H]4CCCCN4Cc4ccc(C5CCN(CC6CCOCC6)CC5)cc4)ccc3C2=O)C(=O)N1` (stereo partly drawn) [Compound I-197, 3-(1-oxo-5-(((R)-1-(4-(1-((tetrahydro-2H-pyran-4-yl)methyl)piperidin-4-yl)benzyl)piperidin-2-yl)methoxy)isoindolin-2-yl)piperidine-2,6-dione] are 51.8%, 48.2% and 56 nM.
The like results for `O=C1CCC(N2Cc3cc(OC[C@H]4CCCCN4Cc4ccc(C5CCN(CCF)CC5)cc4)ccc3C2=O)C(=O)N1` (stereo partly drawn) [Compound I-198, 3-(5-(((R)-1-(4-(1-(2-fluoroethyl)piperidin-4-yl)benzyl)piperidin-2-yl)methoxy)-1-oxoisoindolin-2-yl)piperidine-2,6-dione] were, in that order, 68%, 32% and 13 nM.
Take `O=C1CCC(N2Cc3cc(OC[C@H]4CCCCN4Cc4ccc5ocnc5c4)ccc3C2=O)C(=O)N1` (stereo partly drawn) [Compound I-201, 3-(5-(((R)-1-(benzo[d]oxazol-5-ylmethyl)piperidin-2-yl)methoxy)-1-oxoisoindolin-2-yl)piperidine-2,6-dione]: in test [1] (setting [3]), the Dmax was 80.5%. Further, the remaining activity at up to 25 µM in test [1] (setting [4]) amounted to 19.5%. The DC50 in test [1] (setting [5]) was 19 nM.
The like results for `O=C1CCC(N2Cc3cc(OC[C@H]4CCCCN4CC4COC4)ccc3C2=O)C(=O)N1` (stereo partly drawn) [Compound I-202] were, in that order, 58.7%, 41.3% and 83 nM.
The corresponding values for `O=C1CCC(N2Cc3cc(OC[C@H]4CCCCN4Cc4ccc(C5CCN(CC6COC6)CC5)cc4)ccc3C2=O)C(=O)N1` (stereo partly drawn) [Compound I-203, 3-(5-(((R)-1-(4-(1-(oxetan-3-ylmethyl)piperidin-4-yl)benzyl)piperidin-2-yl)methoxy)-1-oxoisoindolin-2-yl)piperidine-2,6-dione] are 67.5%, 32.5% and 0.92 nM.
The corresponding values for `O=C1CCC(N2Cc3cc(OC[C@H]4CCCCN4CC4CC4)ccc3C2=O)C(=O)N1` (stereo partly drawn) [Compound I-214, 3-(5-(((R)-1-(cyclopropylmethyl)piperidin-2-yl)methoxy)-1-oxoisoindolin-2-yl)piperidine-2,6-dione] are 82.8%, 17.1% and 32 nM.
In the case of `COC1CCC(CN2CCCCC2C(C)Oc2ccc3c(c2)CN(C2CCC(=O)NC2=O)C3=O)CC1` (stereo not drawn) [Compound I-217, 3-(5-(1-(1-((4-methoxycyclohexyl)methyl)piperidin-2-yl)ethoxy)-1-oxoisoindolin-2-yl)piperidine-2,6-dione], the Dmax in test [1] (setting [3]) turned out to be 0.4%. The remaining activity at up to 25 µM in test [1] (setting [4]) worked out at 99.6%.
Consider `CCN1[C@@H]2CC[C@@H](C2)[C@H]1COc1ccc2c(c1)CN(C1CCC(=O)NC1=O)C2=O` (stereo partly drawn) [Compound I-223, 3-(5-(((1R,3S,4S)-2-ethyl-2-azabicyclo[2.2.1]heptan-3-yl)methoxy)-1-oxoisoindolin-2-yl)piperidine-2,6-dione], for which the Dmax in test [1] (setting [3]) worked out at 82.8%. In addition, the remaining activity at up to 25 µM in test [1] (setting [4]) stood at 17.1%. Moreover, the DC50 in test [1] (setting [5]) was 72 nM.
For `CC(C)N1CCN(c2ccc(CN3CCCC[C@@H]3COc3ccc4c(c3)CN(C3CCC(=O)NC3=O)C4=O)cc2)CC1` (stereo partly drawn) [Compound I-227, 3-(5-(((R)-1-(4-(4-isopropylpiperazin-1-yl)benzyl)piperidin-2-yl)methoxy)-1-oxoisoindolin-2-yl)piperidine-2,6-dione], the Dmax in test [1] (HEK-293T, read-out: % degradation of WIZ (100-Amax), 100 minus Amax, 293T cells) came to 64.2%. Also, the remaining activity in test [1] (HEK-293T, read-out: WIZ Amax, DMSO-normalized, curve-fitted percentage of WIZ-HiBit remaining at 25 uM, 293T cells) is 35.8%. Moreover, the DC50 in test [1] (setting [5]) came out at 58 nM.
As to `CC(C)(C)N1CCN(c2ccc(CN3CCCC[C@@H]3COc3ccc4c(c3)CN(C3CCC(=O)NC3=O)C4=O)cc2)CC1` (stereo partly drawn) [Compound I-229, 3-(5-(((R)-1-(4-(4-(tert-butyl)piperazin-1-yl)benzyl)piperidin-2-yl)methoxy)-1-oxoisoindolin-2-yl)piperidine-2,6-dione], the Dmax in test [1] (setting [3]) came out at 73.5%. Moreover, the remaining activity at up to 25 µM in test [1] (setting [4]) amounted to 26.6%. Moreover, the DC50 in test [1] (setting [5]) came out at 2 nM.
The corresponding values for `O=C1CCC(N2Cc3cc(OC[C@H]4CCCCN4Cc4ccc(N5CCN(C6CC6)CC5)cc4)ccc3C2=O)C(=O)N1` (stereo partly drawn) [Compound I-233, 3-(5-(((R)-1-(4-(4-cyclopropylpiperazin-1-yl)benzyl)piperidin-2-yl)methoxy)-1-oxoisoindolin-2-yl)piperidine-2,6-dione] are 81.1%, 18.9% and 0.73 nM.
As to `O=C1CCC(N2Cc3cc(OCC4CC(F)(F)CCN4)ccc3C2=O)C(=O)N1` (stereo not drawn) [Compound I-251, 3-(5-((4,4-difluoropiperidin-2-yl)methoxy)-1-oxoisoindolin-2-yl)piperidine-2,6-dione], in test [1] (setting [3]), the Dmax amounted to 78.3%. Moreover, the remaining activity at up to 25 µM in test [1] (setting [4]) came out at 21.7%. In addition, the DC50 in test [1] (setting [5]) is 500 nM.
Regarding `NC(=O)NO` [Hydroxyurea], in test [2], the response rate entry is given as “less than 40%”.
Usually AC50 stands for the concentration at which the activity in the assay is half-maximal. In the case of `O=C1CCC(N2Cc3cc(OC[C@H]4CCCCN4CC4CC(O)C4)ccc3C2=O)C(=O)N1` (stereo partly drawn) [I-141a, I-141b, 3-(5-(((R)-1-(((1r,3R)-3-hydroxycyclobutyl)methyl)piperidin-2-yl)methoxy)-1-oxoisoindolin-2-yl)piperidine-2,6-dione and 3-(5-(((R)-1-(((1s,3S)-3-hydroxycyclobutyl)methyl)piperidin-2-yl)methoxy)-1-oxoisoindolin-2-yl)piperidine-2,6-dione], the “% degradation of WIZ (100-Amax)” value in test [1] (100 minus Amax, at 25 uM, 293T cells) stood at 72.36%. Also, in test [1] (DMSO-normalized, curve-fitted percentage of WIZ-HiBit remaining at 25 uM, 293T cells), the “WIZ Amax” value was determined as 27.64%. The compound also yielded an AC50 in test [1] (setting [5]) of 2460 nM.

Source of the values: patent US11566022B2, “3-(5-methoxy-1-oxoisoindolin-2-yl)piperidine-2,6-dione derivatives and uses thereof” (NOVARTIS AG, priority 2019, dated 2023).
